Columns and labels:
Assay type in all cases: cell-based
Ustilago avenae = Ustilago avenae test (in vitro)/microtest; settings: single active compound, 4 days incubation, optical density
Description: Ustilago avenae—Test (In Vitro)/Microtest
(§1) The microtest was performed in liquid medium with potato-dextrose broth (PDB) using microtitre plates.
(§2) The active compound is applied as the technical active substance dissolved in methanol.
A spore suspension of Ustilago avenae was used for inoculation. After 4 days of incubation by darkness under shaking (10 Hrz), the optical density in each cavity was evaluated with the aid of a microtitre plate reader.
(§3) 0% means an efficacy which corresponds to that of the control, while an efficacy of 100% means that no fungal growth is observed.

Phytophthora cryptogea = Phytophthora cryptogea test (in vitro)/microtest; settings: single active compound, 0.3 ppm, 3 days incubation, optical density
Description: Phytophthora cryptogea—Test (In Vitro)/Microtest
as §1, §2
A mycelium suspension of Phytophthora ayptogea was used for inoculation. After 3 days of incubation by darkness under shaking (10 Hrz), the optical density in each cavity was evaluated with the aid of a microtitre plate reader.
as §3

Pyricularia oryzae = settings: single active compound, 0.3 ppm, 4 days incubation, optical density

| SMILES | Efficacy in % (Ustilago avenae; Example B, 0.01 ppm) | Efficacy in % (Ustilago avenae; Example D, 0.1 ppm) | Efficacy in % (Phytophthora cryptogea) | Efficacy in % (Pyricularia oryzae) |
| --- | --- | --- | --- | --- |
| Cc1nn(C)c(F)c1C(=O)Nc1ccccc1C(C)CC(C)C (centres unmarked) [BYF 14182] | 95% |  |  |  |
| COc1ccc(-c2coc3cc(O)ccc3c2=O)cc1 [Formononetin] | 13% | 17% | 14% | 11% |
| COCC(=O)N(c1c(C)cccc1C)C(C)C(=O)OC (centres unmarked) [Metalaxyl, metalaxyl] |  |  | 48% |  |
| CC(C)(C)C(O)(CCc1ccc(Cl)cc1)Cn1cncn1 (centres unmarked) [Tebuconazole, tebuconazole] |  | 96% |  |  |
| CO/N=C(/C(=O)OC)c1ccccc1CO/N=C(\C)c1cccc(C(F)(F)F)c1 [Trifloxystrobin, trifloxystrobin] |  |  |  | 56% |

— patent US20100190645A1 (priority 2007, published 2010)
